# Article PMC4713029 (Nuclear medicine and biology, 2011)
# Legend:
# [1] = system: organ metastatic pheochromocytoma lesions (MPC cells); assay: [^18F]-DA and [^18F]-DOPA PET in mice with organ metastatic pheochromocytoma; conditions: for TBR (tumor-to-background ratio), liver tumors <3 mm / TBR, adrenal tumors >3 mm / TBR, liver tumors >3 mm / TBR, ovary tumors >3 mm: muscle as background; for SUVmax in tumor sample Adrenal 1: sample also immunostained; for SUVmax in liver lesions, the first week / SUVmax in liver lesions, the second week: liver lesions imaged once a week for two weeks; for optimal time for lesion detection after administration: liver lesions vs liver background, dynamic PET up to 70 min; for number of ovary tumors localized by PET: necropsy 4 in 4 mice; for number of lung tumors localized by PET: necropsy >20 in 2 mice
# [2] = system: s.c. pheochromocytoma tumors (MPC cells); assay: [^18F]-DA and [^18F]-DOPA PET in mice with subcutaneous pheochromocytoma; conditions: for SUVmax (mean±S.E.M.), s.c. tumors <5 mm / SUVmax (mean±S.E.M.), s.c. tumors >5 mm / SUVmax in tumor sample s.c. 1 / SUVmax in tumor sample s.c. 2 / SUVmax in tumor sample s.c. 3 / TLR for s.c. tumors (range over tumor size) / TLR, s.c. tumors <5 mm / TLR, s.c. tumors >5 mm / TBR, s.c. tumors <5 mm / TBR, s.c. tumors >5 mm: 60–70 min after administration; for TBR, s.c. tumors <5 mm / TBR, s.c. tumors >5 mm: muscle as background; for number of subcutaneous tumors localized by PET: necropsy 4 in 4 mice
# [3] = system: pheochromocytoma animal model with extensive liver and other organ lesions; type: in vivo; conditions: preliminary experiments
# [4] = cited from earlier work
# [5] = Fig. 3G, 60–70 min after injection
compound,measurement,setting,value
"NCCc1cc(O)c(O)cc1[18F] [[^18F]-DA, [^18F]-6-fluorodopamine]","SUVmax (mean±S.E.M.), adrenal tumors >3 mm",[1]; 60–70 min after administration,2.18±0.39
same,"SUVmax (mean±S.E.M.), kidney",[1]; 60–70 min after administration,2.41±0.45
same,"SUVmax (mean±S.E.M.), liver",[1]; 60–70 min after administration,0.88±0.11
same,"SUVmax (mean±S.E.M.), liver tumors <3 mm",[1]; 60–70 min after administration,1.61±0.17
same,"SUVmax (mean±S.E.M.), liver tumors >3 mm",[1]; 60–70 min after administration,2.49±0.08
same,"SUVmax (mean±S.E.M.), muscle (background)",[1]; 60–70 min after administration,0.31±0.02
same,"SUVmax (mean±S.E.M.), ovary tumors >3 mm",[1]; 60–70 min after administration,1.99±0.27
same,SUVmax in tumor sample Adrenal 2,[1]; 60–70 min after administration,1.98
same,SUVmax in tumor sample Bone,[1]; 60–70 min after administration,— (A dash sign “—” presents SUVmax values less than 0.3 for both [^18F]-DA and [^18F]-DOPA)
same,SUVmax in tumor sample Liver 1,[1]; 60–70 min after administration,2.46
same,SUVmax in tumor sample Liver 2,[1]; 60–70 min after administration,1.89
same,SUVmax in tumor sample Liver 3,[1]; 60–70 min after administration,— (A dash sign “—” presents SUVmax values less than 0.3 for both [^18F]-DA and [^18F]-DOPA)
same,SUVmax in tumor sample Lung,[1]; 60–70 min after administration,— (A dash sign “—” presents SUVmax values less than 0.3 for both [^18F]-DA and [^18F]-DOPA)
same,SUVmax in tumor sample Ovary,[1]; 60–70 min after administration,1.92
same,"TLR (tumor-to-liver ratio), liver tumors <3 mm",[1]; 60–70 min after administration,1.83
same,TLR for liver lesions (range depending on tumor size),[1]; 60–70 min after administration,1.83–2.83
same,"TLR, adrenal tumors >3 mm",[1]; 60–70 min after administration,2.47
same,"TLR, liver tumors >3 mm",[1]; 60–70 min after administration,2.83
same,"TLR, ovary tumors >3 mm",[1]; 60–70 min after administration,2.26
same,"TBR (tumor-to-background ratio), liver tumors <3 mm",[1]; 60–70 min after administration,5.19
same,"TBR, adrenal tumors >3 mm",[1]; 60–70 min after administration,7.03
same,"TBR, liver tumors >3 mm",[1]; 60–70 min after administration,8.03
same,"TBR, ovary tumors >3 mm",[1]; 60–70 min after administration,6.41
same,SUVmax in tumor sample Adrenal 1,[1]; 60–70 min after administration,2.15
same,"SUVmax time–activity course, liver lesions smaller than 3 mm","[1]; dynamic PET 10–70 min, Fig. 1",remained relatively stable
same,"SUVmax time–activity course, liver tumors larger than 3 mm","[1]; dynamic PET 10–70 min, Fig. 1",decrease in SUVmax over time
same,"SUVmax in liver lesions, the first week",[1],1.85±0.199
same,"SUVmax in liver lesions, the second week",[1],1.16±0.07
same,optimal time for lesion detection after administration,[1],60 to 70 min
same,number of mice with adrenal tumors localized by PET,"[1]; week 5, nine mice",4 mice
same,number of mice with liver tumors localized by PET,"[1]; week 5, nine mice",8 mice
same,number of mice with ovary tumors localized by PET,"[1]; week 5, nine mice",4 in 4 mice
same,number of ovary tumors localized by PET,"[1]; week 5, nine mice",4 in 4 mice
same,number of lung tumors localized by PET,"[1]; week 5, nine mice",0
same,"SUVmax (mean±S.E.M.), s.c. tumors <5 mm",[2],0.31±0.02
same,"SUVmax (mean±S.E.M.), s.c. tumors >5 mm",[2],0.35±0.12
same,SUVmax in tumor sample s.c. 1,[2],— (A dash sign “—” presents SUVmax values less than 0.3 for both [^18F]-DA and [^18F]-DOPA)
same,SUVmax in tumor sample s.c. 2,[2],— (A dash sign “—” presents SUVmax values less than 0.3 for both [^18F]-DA and [^18F]-DOPA)
same,SUVmax in tumor sample s.c. 3,[2],— (A dash sign “—” presents SUVmax values less than 0.3 for both [^18F]-DA and [^18F]-DOPA)
same,TLR for s.c. tumors (range over tumor size),[2],0.22-0.27
same,"TLR, s.c. tumors <5 mm",[2],0.22
same,"TLR, s.c. tumors >5 mm",[2],0.27
same,"TBR, s.c. tumors <5 mm",[2],1.72
same,"TBR, s.c. tumors >5 mm",[2],1.94
same,"SUVmax in large s.c. tumor, representative animal",[2]; [5],0.35
same,"SUVmax in muscle (nontarget tissue), representative animal",[2]; [5],0.31
same,number of subcutaneous tumors localized by PET,[2]; four mice,0
"N[C@@H](Cc1cc(O)c(O)cc1[18F])C(=O)O [[^18F]-DOPA, [^18F]-L-6-fluoro-3,4-dihydroxyphenylalanine]","SUVmax (mean±S.E.M.), adrenal tumors >3 mm",[1]; 60–70 min after administration,6.61±0.64
same,"SUVmax (mean±S.E.M.), kidney",[1]; 60–70 min after administration,1.73±0.34
same,"SUVmax (mean±S.E.M.), liver",[1]; 60–70 min after administration,1.33±0.14
same,"SUVmax (mean±S.E.M.), liver tumors <3 mm",[1]; 60–70 min after administration,3.01±0.27
same,"SUVmax (mean±S.E.M.), liver tumors >3 mm",[1]; 60–70 min after administration,3.61±0.19
same,"SUVmax (mean±S.E.M.), muscle (background)",[1]; 60–70 min after administration,0.29±0.02
same,"SUVmax (mean±S.E.M.), ovary tumors >3 mm",[1]; 60–70 min after administration,2.59±0.32
same,SUVmax in tumor sample Adrenal 2,[1]; 60–70 min after administration,5.79
same,SUVmax in tumor sample Bone,[1]; 60–70 min after administration,1.42
same,SUVmax in tumor sample Liver 1,[1]; 60–70 min after administration,3.31
same,SUVmax in tumor sample Liver 2,[1]; 60–70 min after administration,2.79
same,SUVmax in tumor sample Liver 3,[1]; 60–70 min after administration,3.24
same,SUVmax in tumor sample Lung,[1]; 60–70 min after administration,1.15
same,SUVmax in tumor sample Ovary,[1]; 60–70 min after administration,3.05
same,"TLR (tumor-to-liver ratio), liver tumors <3 mm",[1]; 60–70 min after administration,2.26
same,TLR for liver lesions (range depending on tumor size),[1]; 60–70 min after administration,2.26–2.71
same,"TLR, liver tumors >3 mm",[1]; 60–70 min after administration,2.71
same,"TBR (tumor-to-background ratio), liver tumors <3 mm",[1]; 60–70 min after administration,10.38
same,"TBR, adrenal tumors >3 mm",[1]; 60–70 min after administration,22.79
same,"TBR, liver tumors >3 mm",[1]; 60–70 min after administration,12.45
same,"TBR, ovary tumors >3 mm",[1]; 60–70 min after administration,8.93
same,SUVmax in tumor sample Adrenal 1,[1]; 60–70 min after administration,6.46
same,"SUVmax time–activity course, liver lesions regardless of tumor size","[1]; dynamic PET 10–70 min, Fig. 1",remained stable over time
same,"SUVmax in liver lesions, the first week",[1],3.023±0.22
same,"SUVmax in liver lesions, the second week",[1],2.88±0.12
same,optimal time for lesion detection after administration,[1],60 to 70 min
same,number of mice with adrenal tumors localized by PET,"[1]; week 5, nine mice",5 mice
same,number of mice with liver tumors localized by PET,"[1]; week 5, nine mice",9 mice
same,number of mice with lung tumors localized by PET,"[1]; week 5, nine mice",1 in 1 mouse
same,number of mice with ovary tumors localized by PET,"[1]; week 5, nine mice",4 in 4 mice
same,number of ovary tumors localized by PET,"[1]; week 5, nine mice",4 in 4 mice
same,number of adrenal tumors localized by PET,"[1]; week 5, nine mice, necropsy 18 in 9 mice",9
same,number of lung tumors localized by PET,"[1]; week 5, nine mice",1 in 1 mouse
same,"SUVmax (mean±S.E.M.), s.c. tumors <5 mm",[2],2.88±0.88
same,"SUVmax (mean±S.E.M.), s.c. tumors >5 mm",[2],2.0±0.06
same,SUVmax in tumor sample s.c. 1,[2],1.88
same,SUVmax in tumor sample s.c. 2,[2],2.25
same,SUVmax in tumor sample s.c. 3,[2],2.09
same,TLR for s.c. tumors (range over tumor size),[2],1.56-2.24
same,"TLR, s.c. tumors <5 mm",[2],2.24
same,"TLR, s.c. tumors >5 mm",[2],1.56
same,"TBR, s.c. tumors <5 mm",[2],7.2
same,"TBR, s.c. tumors >5 mm",[2],5.0
same,"SUVmax in large s.c. tumor, representative animal",[2]; [5],2
same,number of mice with subcutaneous tumors localized by PET,[2]; four mice,4 in 4 mice
same,number of subcutaneous tumors localized by PET,[2]; four mice,4 in 4 mice
CNCCCN1c2ccccc2CCc2ccccc21 [desipramine],side effects on administration in tumor-bearing animals,[3],side effects were in most cases fatal
NCCc1ccc(O)c(O)c1 [dopamine],half-life in circulation,[4],about 1 minute
COC(=O)[C@H]1[C@H]2C[C@@H]3c4[nH]c5cc(OC)ccc5c4CCN3C[C@H]2C[C@@H](OC(=O)c2cc(OC)c(OC)c(OC)c2)[C@@H]1OC [reserpine],side effects on administration in tumor-bearing animals,[3],side effects were in most cases fatal
COc1cc2c(cc1OC)C1CC(=O)C(CC(C)C)CN1CC2 (stereo not shown) [tetrabenazine],side effects on administration in tumor-bearing animals,[3],side effects were in most cases fatal
